Data taken from the pKa sets of Baltruschat and Czodrowski (2020).

Conditions: acidic group

Row | SMILES | pKa
1 | Cc1ccc(C(=O)S)cc1 | 2.59
2 | CCCC/C=[N+](\[O-])O | 4.5
3 | O=C(O)c1cc2ccccc2cc1O | 2.71
4 | CN1CCC(=O)NC1=O | 11.9
5 | CC(C)(S)CN | 11
6 | O=C(O)CCCc1c[nH]c2ccccc12 | 4.82
7 | Cc1ccc([N+](=O)[O-])c(C(=O)O)c1 | 2.55
8 | NC(=S)Nc1ccc([N+](=O)[O-])cc1 | 10.8
9 | C[Si](C)(C)c1ccc(C(=O)O)cc1 | 4.27
10 | O=S(=O)(Nc1ccccc1)c1ccc(Cl)cc1 | 7.98
11 | O=C1[N-]C(=S)NC(=O)C1C1C=CCCC1 (stereo unspecified) | 11.3
12 | O=C1/C(=C2\C=CC=CN2)C(=O)c2cc([N+](=O)[O-])ccc21 | 9.26
13 | O=C(O)CCc1cccs1 | 4.34
14 | CNC(=O)c1ccccc1O | 8.03
15 | C[NH+]1CCC(n2nc(-c3ccccc3)c(Cc3ccccc3)c2O)CC1 | 6.73
16 | Oc1cc(-c2ccccc2)nn1-c1ccccc1 | 12.2
17 | CC1CC(C)C(=O)CC1=O (stereo unspecified) | 5.62
18 | Cc1cccc2ccc(O)cc12 | 9.42
19 | CCCC1(CCC)SC(=O)NC1=O | 6.37
20 | O=C1Oc2ccccc2C(=O)C1Cc1c([O-])c2ccccc2oc1=O (stereo unspecified) | 8.3
21 | O=CC1=CC=CC1 | 7.4

Row | SMILES | pKa
22 | O=C([O-])C[NH+](CC(=O)[O-])Cc1ccccc1O | 8.17
23 | O/N=C/C=C/c1ccccc1 | 10.6
24 | CCSC(C)O (stereo unspecified) | 14.3
25 | COc1ccc(CC(C(C)=O)C(C)=O)cc1 | 10.6
26 | O=C(OCc1ccccc1)c1ccc(O)cc1 | 8.31
27 | COc1cccc(CN)c1O | 11.1
28 | CCC(=O)NO | 9.46
29 | O=C(O)[C@H]1C[C@@H]1c1ccc(Cl)cc1 | 4.53
30 | NS(=O)(=O)c1ccc(/N=C/c2ccccc2[O-])cc1 | 11.7
31 | COC(=O)/C(=N/O)c1ccccc1 | 8.87
32 | O=[PH](O)C([NH2+]Cc1cccc[nH+]1)c1ccccc1O (stereo unspecified) | 2.4
33 | O=C(O)C(CO)[NH2+]Cc1ccccc1O (stereo unspecified) | 2.1
34 | C[n+]1ccccc1N | 12.2
35 | [NH3+]C(Cc1ccccc1)C(=O)O (stereo unspecified) | 2.3
36 | N#Cc1cccc(S(N)(=O)=O)c1 | 8.84
37 | CC(=S)Nc1ccccc1 | 11.6
38 | Cc1[nH]c2ccccc2c1CC(=O)O | 4.67
39 | CC(=O)c1cc([N+](=O)[O-])ccc1C(=O)O | 3.06
40 | CCCCc1c(-c2ccccc2)n[nH]c1O | 8.2
41 | O=C(O)c1cc(Cl)co1 | 2.69
42 | Cc1ncc(C(=O)O)s1 | 3.26

Row | SMILES | pKa
43 | SCc1ncc[nH]1 | 9.26
44 | O=C(NO)C1CCCCC1 | 9.87
45 | O=[PH]([O-])C(NCc1cccnc1)c1ccccc1O (stereo unspecified) | 12
46 | O=C(O)C1=C(CO)CC1 | 4.16
47 | [NH3+][C@@H](CCC(=O)O)C(=O)O | 2.08
48 | C[C@H]1CCCC[C@@H]1C(=O)O | 4.74
49 | CC(=S)NCc1ccccc1 | 13
50 | Cc1ccc(Br)cc1C(=O)O | 3.58
51 | Cc1cccc([N+](=O)[O-])c1C(=O)O | 2.13
52 | CC(C)c1cc(O)c(=O)ccc1Br | 6.53
53 | COc1ccccc1/C=N/O | 10.9
54 | CC1(C)[C@@H]2CC[C@](C(=O)O)(C2)[C@@H]1O | 4.83
55 | O=C(O)[C@H]1C[C@@H]2CC[C@H]1C2 | 5.02
56 | O=C(O)CCc1ccoc1 | 4.44
57 | Oc1ccccc1C1CCNCCNCCCNCCN1 (stereo unspecified) | 10.8
58 | Oc1cccc2cccc(O)c12 | 6.71
59 | Oc1c(Cl)cccc1Cl | 6.8
60 | O=C(O)c1ccc2sc(Cn3cc[nH+]c3)cc2c1 | 3.9
61 | CCc1ccc(OC)c(C(=O)NC[C@H]2CCC[NH+]2CC)c1O | 8.7
62 | O=S(=O)([N-]c1ncccn1)c1ccc(O)cc1 | 9
63 | CC(C)N(CCC(C(N)=O)(c1ccccc1)c1ccccn1)C(C)C (stereo unspecified) | 10.2

Row | SMILES | pKa
64 | NC(=O)C1CC2CCN1CC2 (stereo unspecified) | 9.04
65 | Cc1ccc(Br)c(C(=O)O)c1 | 3
66 | O/N=C/c1ccc(Cl)cc1 | 10.5
67 | O=C(O)/C(I)=C/c1ccccc1 | 3.3
68 | CC(C)CC(N)C(N)=O (stereo unspecified) | 8
69 | O=C(O)CCC(=O)c1ccc(-c2ccccc2)cc1 | 4.46
70 | [S-]c1ncnc2nc[nH]c12 | 10.9
71 | CCCCCCCP(=O)(CCCCCCC)NC1CCCCC1 | 12.5
72 | Oc1c(Cl)cc(Cl)c(Cl)c1C[NH+]1CCCCC1 | 5.06
73 | CC(=O)CC=O | 6.12
74 | O=C1C=C(S(=O)(=O)[O-])c2cn[nH]c2/C1=N\O | 5.85
75 | NC(=O)[C@@H](N)Cc1ccccc1 | 7.26
76 | CCCS | 10.6
77 | Cc1cc(C)c(O)cc1C | 10.6
78 | COc1cccc(O)c1O | 9.28
79 | CC(=O)c1ccc(C(=O)O)s1 | 3
80 | O=c1[nH]c(=S)[nH]c2nc[nH]c12 | 5.88
81 | O=C(O)c1cc([N+](=O)[O-])ccc1Sc1ccccc1 | 3.22

Same assay, conditions: basic group

Row | SMILES | pKa
82 | Cc1ccc(C(=O)S)cc1 | -5.19
83 | COc1cccc(CN2CC(O[Si](C)(C)C)C2)c1 | 7.81
84 | CC(C)(S)CN | 8.48
85 | CN(CO)c1ccc(Cl)cc1 | 3.02
86 | Cc1cc(-c2ccccc2)n(-c2ccc(C(=O)O)cc2)n1 | 1.59
87 | CNCC[S-] | 10.8
88 | O=[N+]([O-])c1cccc(C2NCCS2)c1 (stereo unspecified) | 4.63
89 | N[C@@H](C(=O)[O-])[C@H](O)C(=O)[O-] | 9
90 | CCNc1nc(N)nc(NCC)n1 | 5.52
91 | COc1ccc2c(c1)CC(C)N2 (stereo unspecified) | 6.2
92 | Cc1ccccc1/C(=N\CCCN(C)C)c1ccccc1Cl | 8.95
93 | CCn1ccnc1C | 8.09
94 | Cn1c([O-])[nH+]c2cnc([O-])nc21 | 8.74
95 | C=C(C)C(=O)OCCN(CC)CC | 8.66
96 | [NH3+]CCc1c[nH]cn1 | 6.08
97 | Cc1ccc2ccccc2n1 | 5.69
98 | COC(=O)c1ccc2ncccc2c1 | 3.8
99 | C[Si](C)(CNC1CCCCC1)O[Si](C)(C)CNC1CCCCC1 | 10.1
100 | c1ncc2c(n1)NCCN2 | 6.63
101 | NCCCCCN | 10.8
102 | CC(=O)OCCN(C)C | 8.3
103 | C[NH+](C)CCCN=C(c1ccccc1)c1ccccc1 | 5.2
104 | CC#C[C@H](C)Oc1cc(N)c(Cl)cc1C(=O)N[C@@H]1C[C@H]2CC[C@@H](C1)N2C | 9.95
105 | COCCN | 9.67

Row | SMILES | pKa
106 | NCC[S-] | 10.7
107 | Nc1ccc(Cl)cc1[N+](=O)[O-] | -0.88
108 | Cc1cc(N)nc(C)n1 | 6.85
109 | Nc1ccccc1S(N)(=O)=O | 1
110 | COc1cccc(CN)c1O | 8.7
111 | CCNc1ncnc2c1cnn2C | 4.24
112 | Cc1nc2[nH]c(=O)[nH]c(=O)c2[nH]1 | 3.1
113 | C(=C\c1nnnn1-c1ccccc1)/c1ccccc1 | -2.3
114 | CN1CCC=C(C#N)C1 | 6.35
115 | Cc1cccc(N)c1 | 4.7
116 | NCC(O)CO (stereo unspecified) | 9.3
117 | N=C(c1ccccc1)c1cccc(O)c1 | 6.92
118 | COc1cc2c(cc1O)CCN1Cc3c(ccc(OC)c3OC)C[C@@H]21 | 9.55
119 | Cn1ncc2cncnc21 | 2.5
120 | O=P([O-])([O-])C(NCc1cccnc1)c1ccccc1[O-] (stereo unspecified) | 12.2
121 | CNC(C)Cc1ccccc1 (stereo unspecified) | 9.87
122 | N#CC(CCN1CCOCC1)(c1ccccc1)c1ccccc1 | 6.09
123 | COc1ccc(S(=O)(=O)NCCN2CCOCC2)c(OC)c1OC | 6.16
124 | CCCNCC(=O)Nc1c(C)cccc1C | 8.01
125 | O=C(O)c1nccs1 | 2.57
126 | CC(CN(C)C)C(C#N)(c1ccccc1)c1ccccc1 (stereo unspecified) | 7.9
127 | C[C@H]1CCN2CCC[C@@H]12 | 11.4
128 | C[NH+](C)CCCNc1c2ccccc2nc2c(F)ccc([N+](=O)[O-])c12 | 5.41
129 | SCc1ncc[nH]1 | 6.37

Row | SMILES | pKa
130 | CCN(CC)CCSCC(C)C | 8.83
131 | C/C(=C\C=C\C(C)C(=O)[O-])[C@H]1CN[C@H](C(=O)[O-])[C@H]1CC(=O)[O-] (stereo partly specified) | 9.82
132 | c1ccc(CNc2nccs2)cc1 | 5.15
133 | CN1CC=CC1 | 9.92
134 | O=[PH]([O-])C(NCc1cccnc1)c1ccccc1O (stereo unspecified) | 8.05
135 | CN(C)CCCN(C)CCCN(C)C | 10
136 | Nc1ccc(CC(=O)[O-])cc1 | 5.2
137 | N[C@@H](CC(=O)[O-])C(=O)[O-] | 9.54
138 | CN1CCN(C)c2cccc3cccc1c23 | 4.62
139 | [NH3+]NC(=O)c1ccncc1 | 1.85
140 | CCCN(CC(C)O)CC(O)CC (stereo unspecified) | 9
141 | COC(=O)c1ccc2ccccc2n1 | 1.75
142 | [NH3+]c1ccc(/C=N/NC(=O)c2ccncc2)cc1 | 3.2
143 | N/C(Cc1ccccc1)=N\O | 5.32
144 | Nc1ccc(-c2ncc(-c3ccc(Cl)cc3)o2)cc1 | 2.87
145 | NCCCCCCBr | 10.6
146 | c1ccc(Nc2ccccc2)cc1 | 0.76
147 | NCCc1cnc[nH]1 | 9.4
148 | Cc1ccc(NC(=O)CN2CCCCC2)c(C)c1 | 7.8
149 | O=Cc1ccnc2ccccc12 | 4.25
150 | Cc1cccc(/N=N/c2ccc(N(C)C)cc2)c1 | 2.33
151 | Cc1cc(C)n(Cc2cc(C)[nH]n2)n1 | 3.5
152 | Cn1ncc2c(NCc3ccco3)ncnc21 | 3.8
153 | C[Si](C)(CCN)O[Si](C)(C)CCN | 10.7

Row | SMILES | pKa
154 | Cn1nccc1N | 4.23
155 | Cc1ccc2c(c1)cc(C)n2C | 0.5
156 | CCc1cnc(C(=O)[O-])cc1CC | 6.58
157 | CC[C@H]1CN2CC[C@@H]1C[C@H]2[C@H](O)c1ccnc2ccc(OC)cc12 | 8.67
158 | SCCNCc1cccs1 | 8.93
159 | CN1C=C(C#N)CCC1 | 2.7
160 | CN1CCCCC1 | 10.1
161 | N[C@@H](Cc1c[nH]c2ccccc12)C(=O)[O-] | 9.31
162 | [S-]c1ncnc2nc[nH]c12 | 7.74
163 | CC1=C(CC(C)NCC(O)c2ccc(Br)cc2)CCC1(C)C (stereo unspecified) | 8.57
164 | CCN(CC)CCC(=O)Nc1c(C)cccc1C | 8.96
165 | CN(C)c1ccc(/C=C/c2cc(N)c3ccccc3n2)cc1 | 9.7
166 | CCCCCCCP(=O)(CCCCCCC)NC1CCCCC1 | 4.87
167 | c1ccc2cc(NCCNc3ccc4ccccc4c3)ccc2c1 | 3.7
168 | NCCCCCC#CC#CCCC(=O)[O-] | 10.7
169 | Cc1cc(=O)n(C)cn1 | 2.1
170 | c1ccc2ncncc2c1 | 3.51
171 | CN(C)c1ccc(C=O)cc1 | 1.6
172 | N[C@H]1C[C@@H]1N | 8.82
173 | Nc1cnc2c(N)nc(N)nc2n1 | 6.3
174 | Clc1cccc(Nc2ccccc2)c1 | 2.34
175 | c1ccc2c(c1)CCN2 | 5.49
176 | Cc1cccc(N)c1-c1c(C)cccc1N | 3.7
